In PubChem BioAssay AID306 (DTP/NCI, 2004):
“And” between values parts separate entries of the source, which are not always exact repeats. Equal entries are not always repeated. Toxic doses and inconclusive results are not listed. *1 amine or outer side, *2 acyl side, *3 side chain or, on linkers, in order; H or OH if unused. Where a SMILES comes first, the peptide text is derived from it. Bridges are numbered along the chain shown (N, C = ends). Roman numbers before positions name the chains, in order. [ ]: non-standard residue; d: D form. Actinocin(9to1) = Cc1c2oc3c(C)ccc(C(=O)[*:1])c3nc-2c(C(=O)[*:2])c(N)c1=O; aThr = C[C@H](O)[C@H](N)C(=O)O; NMeV = CN[C@H](C(=O)O)C(C)C; Sar = CNCC(=O)O

Tested on: BDF1 mice, L1210 Methyl-GAG-resistant leukemia, survival T/C
Assay: NCI In Vivo Anticancer Drug Screen. Data for tumor model L1210 Leukemia resistant to Methyl-GAG; NSC 32946 (subcutaneous) in B6D2F1 (BDF1) mice
Details: endpoint: mean survival time, higher = longer survival
Experimental: The antitumor activity of compounds was measured in mice bearing transplantable tumors. Survival or tumor size were measured and the results are expressed as the measurement made in the treated group (T) divided by the measurement made in the vehicle treated control group (C). The tumor model used in this assay is L1210 Leukemia resistant to Methyl-GAG; NSC 32946 (subcutaneous) in B6D2F1 (BDF1) mice

[1] = dose: 62.5 mg/kg/injection, schedule: Q01DX Z (ip), vehicle: carboxymethylcellulose (CMC)
[2] = dose: 125.0 mg/kg/injection, schedule: Q01DX Z (ip), vehicle: carboxymethylcellulose (CMC)
[3] = dose: 250.0 mg/kg/injection, schedule: Q01DX Z (ip), vehicle: carboxymethylcellulose (CMC)
[4] = dose: 500.0 mg/kg/injection, schedule: Q01DX Z (ip), vehicle: carboxymethylcellulose (CMC)
[5] = dose: 1000.0 mg/kg/injection, schedule: Q01DX Z (ip), vehicle: carboxymethylcellulose (CMC)
[6] = dose: 12.5 mg/kg/injection, schedule: Q01DX Z (ip), vehicle: carboxymethylcellulose (CMC)
[7] = dose: 25.0 mg/kg/injection, schedule: Q01DX Z (ip), vehicle: carboxymethylcellulose (CMC)
[8] = dose: 50.0 mg/kg/injection, schedule: Q01DX Z (ip), vehicle: carboxymethylcellulose (CMC)
[9] = dose: 6.3 mg/kg/injection, schedule: Q01DX Z (ip), vehicle: saline
[10] = dose: 12.5 mg/kg/injection, schedule: Q01DX Z (ip), vehicle: saline
[11] = dose: 25.0 mg/kg/injection, schedule: Q01DX Z (ip), vehicle: saline

Compound: OCC1OC(n2cnc3c(Cl)ncnc32)C(O)C1O (stereo not drawn)
- T/C [1]: 96 % of control
- T/C [2]: 94 % of control
- T/C [3]: 99 % of control
- T/C [4]: 88 % of control and 102 % of control
- T/C [5]: 91 % of control

Compound: S=P(N1CC1)(N1CC1)N1CC1
- T/C (dose: 0.62 mg/kg/injection, schedule: Q01DX Z (ip), vehicle: saline): 111 % of control
- T/C (dose: 5.0 mg/kg/injection, schedule: Q01DX Z (ip), vehicle: saline): 150 % of control
- T/C (dose: 10.0 mg/kg/injection, schedule: Q01DX Z (ip), vehicle: saline): 110 % of control

Compound: O=c1[nH]c(=O)n(C2CC(O)C(CO)O2)cc1I (stereo not drawn)
- T/C [1]: 118 % of control
- T/C [2]: 112 % of control
- T/C [4]: 117 % of control

Compound: Cc1c2oc3c(C)ccc(C(=O)N[C@@H]4C(=O)N[C@H](C(C)C)C(=O)N5CCC[C@H]5C(=O)N(C)CC(=O)N(C)[C@@H](C(C)C)C(=O)O[C@H]4C)c3nc-2c(C(=O)N[C@@H]2C(=O)N[C@H](C(C)C)C(=O)N3CCC[C@H]3C(=O)N(C)CC(=O)N(C)[C@@H](C(C)C)C(=O)O[C@H]2C)c(N)c1=O (I: [aThr][dV]P[Sar][NMeV] / II: [aThr][dV]P[Sar][NMeV]; ester I:1-I:C, II:1-II:C; linker I:N-II:N via Actinocin(9to1))
- T/C (dose: 0.8 micrograms/kg/injection, schedule: Q01DX Z (ip), vehicle: saline): 96 % of control
- T/C (dose: 6.4 micrograms/kg/injection, schedule: Q01DX Z (ip), vehicle: saline): 93 % of control
- T/C (dose: 25.6 micrograms/kg/injection, schedule: Q01DX Z (ip), vehicle: saline): 96 % of control
- T/C (dose: 51.2 micrograms/kg/injection, schedule: Q01DX Z (ip), vehicle: saline): 98 % of control
- T/C (dose: 102.0 micrograms/kg/injection, schedule: Q01DX Z (ip), vehicle: saline): 90 % of control

Compound: CCCCCCCCCCCCNCCCCCCCCCCCC
- T/C (dose: 7.5 mg/kg/injection, schedule: Q01DX Z (ip), vehicle: carboxymethylcellulose (CMC)): 94 % of control
- T/C (dose: 15.0 mg/kg/injection, schedule: Q01DX Z (ip), vehicle: carboxymethylcellulose (CMC)): 101 % of control
- T/C (dose: 30.0 mg/kg/injection, schedule: Q01DX Z (ip), vehicle: carboxymethylcellulose (CMC)): 103 % of control

Compound: Cn1cnc([N+](=O)[O-])c1Sc1ncnc2nc[nH]c12
- T/C [6]: 105 % of control
- T/C [7]: 103 % of control
- T/C [8]: 124 % of control
- T/C (dose: 100.0 mg/kg/injection, schedule: Q01DX Z (ip), vehicle: carboxymethylcellulose (CMC)): 88 % of control

Compound: N#CCSc1ncnc2nc[nH]c12
- T/C [6]: 101 % of control
- T/C [7]: 110 % of control
- T/C [8]: 123 % of control

Compound: Cn1cc(NC(=O)c2cc(NC(=O)CN=C(N)N)cn2C)cc1C(=O)NCCC(=N)N
- T/C [9]: 112 % of control
- T/C [10]: 102 % of control
- T/C [11]: 91 % of control

Compound: CN(Cc1cnc2nc(N)nc(N)c2n1)c1ccc(C(=O)N[C@@H](CCC(=O)O)C(=O)O)cc1
- T/C (dose: 0.31 mg/kg/injection, schedule: Q01DX Z (ip), vehicle: other): 157 % of control and 164 % of control (2×)
- T/C (dose: 0.43 mg/kg/injection, schedule: Q01DX Z (ip), vehicle: other): 160 % of control
- T/C (dose: 0.62 mg/kg/injection, schedule: Q01DX Z (ip), vehicle: other): 235 % of control and 245 % of control and 246 % of control
- T/C (dose: 0.87 mg/kg/injection, schedule: Q01DX Z (ip), vehicle: other): 255 % of control
- T/C (dose: 1.25 mg/kg/injection, schedule: Q01DX Z (ip), vehicle: other): 262 % of control and 270 % of control and 276 % of control
- T/C (dose: 1.5 mg/kg/injection, schedule: Q01DX Z (ip), vehicle: other): 194 % of control
- T/C (dose: 1.75 mg/kg/injection, schedule: Q01DX Z (ip), vehicle: other): 301 % of control
- T/C (dose: 2.5 mg/kg/injection, schedule: Q01DX Z (ip), vehicle: other): 178 % of control
- T/C (dose: 3.0 mg/kg/injection, schedule: Q01DX Z (ip), vehicle: other): 234 % of control
- T/C (dose: 3.5 mg/kg/injection, schedule: Q01DX Z (ip), vehicle: other): 116 % of control
- T/C (dose: 5.0 mg/kg/injection, schedule: Q01DX Z (ip), vehicle: other): 95 % of control and 118 % of control

Compound: CN(N=O)C(N)=O
- T/C (dose: 3.2 mg/kg/injection, schedule: Q01DX Z (ip), vehicle: saline): 97 % of control
- T/C [9]: 113 % of control
- T/C [10]: 115 % of control
- T/C [11]: 178 % of control

Compound: Cc1n[nH]c(=O)[nH]c1=O
- T/C (dose: 0.8 mg/kg/injection, schedule: Q01DX Z (ip), vehicle: other): 100 % of control
- T/C (dose: 1.6 mg/kg/injection, schedule: Q01DX Z (ip), vehicle: other): 102 % of control
- T/C (dose: 3.1 mg/kg/injection, schedule: Q01DX Z (ip), vehicle: other): 98 % of control
- T/C (dose: 6.25 mg/kg/injection, schedule: Q01DX Z (ip), vehicle: other): 120 % of control
- T/C (dose: 6.3 mg/kg/injection, schedule: Q01DX Z (ip), vehicle: other): 100 % of control
- T/C (dose: 12.5 mg/kg/injection, schedule: Q01DX Z (ip), vehicle: other): 101 % of control
- T/C (dose: 25.0 mg/kg/injection, schedule: Q01DX Z (ip), vehicle: other): 100 % of control
- T/C (dose: 50.0 mg/kg/injection, schedule: Q01DX Z (ip), vehicle: other): 95 % of control and 103 % of control
- T/C (dose: 100.0 mg/kg/injection, schedule: Q01DX Z (ip), vehicle: other): 91 % of control
- T/C (dose: 200.0 mg/kg/injection, schedule: Q01DX Z (ip), vehicle: other): 88 % of control
- T/C (dose: 400.0 mg/kg/injection, schedule: Q01DX Z (ip), vehicle: other): 89 % of control

Compound: COc1cc2c(c(OC)c1OC)-c1ccc(OC)c(=O)cc1[C@@H](NC(C)=O)CC2
- T/C (dose: 0.12 mg/kg/injection, schedule: Q01DX Z (ip), vehicle: saline): 95 % of control
- T/C (dose: 0.25 mg/kg/injection, schedule: Q01DX Z (ip), vehicle: saline): 96 % of control
- T/C (dose: 0.5 mg/kg/injection, schedule: Q01DX Z (ip), vehicle: saline): 101 % of control

Compound: O=C(Nc1ccc(C2=NCCN2)cc1)c1cccc(C(=O)Nc2ccc(C3=NCCN3)cc2)c1
- T/C (dose: 1.2 mg/kg/injection, schedule: Q01DX Z (ip), vehicle: water): 102 % of control
- T/C (dose: 2.4 mg/kg/injection, schedule: Q01DX Z (ip), vehicle: water): 108 % of control
- T/C (dose: 9.4 mg/kg/injection, schedule: Q01DX Z (ip), vehicle: water): 211 % of control
- T/C (dose: 12.5 mg/kg/injection, schedule: Q01DX Z (ip), vehicle: water): 223 % of control
- T/C (dose: 18.8 mg/kg/injection, schedule: Q01DX Z (ip), vehicle: water): 226 % of control
- T/C (dose: 25.0 mg/kg/injection, schedule: Q01DX Z (ip), vehicle: water): 236 % of control
- T/C (dose: 37.5 mg/kg/injection, schedule: Q01DX Z (ip), vehicle: carboxymethylcellulose (CMC)): 202 % of control
- T/C (dose: 37.5 mg/kg/injection, schedule: Q01DX Z (ip), vehicle: water): 287 % of control
- T/C (dose: 50.0 mg/kg/injection, schedule: Q01DX Z (ip), vehicle: water): 113 % of control
- T/C (dose: 75.0 mg/kg/injection, schedule: Q01DX Z (ip), vehicle: carboxymethylcellulose (CMC)): 224 % of control
- T/C (dose: 150.0 mg/kg/injection, schedule: Q01DX Z (ip), vehicle: carboxymethylcellulose (CMC)): 247 % of control

Compound: CC[C@H](c1ccc(O)cc1)[C@@H](CC)c1ccc(O)cc1
- T/C (dose: 4.0 mg/kg/injection, schedule: Q01DX Z (sc), vehicle: steriod suspending solution): 100 % of control
- T/C (dose: 8.0 mg/kg/injection, schedule: Q01DX Z (sc), vehicle: steriod suspending solution): 100 % of control
- T/C (dose: 16.0 mg/kg/injection, schedule: Q01DX Z (sc), vehicle: steriod suspending solution): 95 % of control
- T/C (dose: 32.0 mg/kg/injection, schedule: Q01DX Z (sc), vehicle: steriod suspending solution): 105 % of control

Compound: O=CN(O)CC(=O)O
- T/C [1]: 108 % of control
- T/C [2]: 101 % of control
- T/C [3]: 101 % of control
- T/C [4]: 102 % of control and 110 % of control
- T/C [5]: 105 % of control

Compound: Nc1nc(=S)c2ncn(C3OC(CO)C(O)C3O)c2[nH]1 (stereo not drawn)
- T/C (dose: 0.16 mg/kg/injection, schedule: Q01DX Z (ip), vehicle: carboxymethylcellulose (CMC)): 92 % of control
- T/C (dose: 0.31 mg/kg/injection, schedule: Q01DX Z (ip), vehicle: carboxymethylcellulose (CMC)): 91 % of control
- T/C (dose: 0.62 mg/kg/injection, schedule: Q01DX Z (ip), vehicle: carboxymethylcellulose (CMC)): 102 % of control
- T/C (dose: 1.25 mg/kg/injection, schedule: Q01DX Z (ip), vehicle: carboxymethylcellulose (CMC)): 111 % of control
- T/C (dose: 2.5 mg/kg/injection, schedule: Q01DX Z (ip), vehicle: carboxymethylcellulose (CMC)): 152 % of control
